Results from the NIST ThermoML archive (doi:10.1016/j.jct.2011.07.006).

Experiment: xn = mol fraction of the nth substance listed
Conditions: Gas, Buoyancy - hydrostatic balance with magnetic suspension - one sinker

N#N [nitrogen] + O=C=O
mass density [kg/m3]
Conditions | x2 = 0.1001 | x2 = 0.1505
250.04 K, 12011 kPa | 188.824 | –
250.04 K, 14015 kPa | 220.196 | –
250.04 K, 16024 kPa | 250.228 | –
250.04 K, 18041 kPa | 278.626 | –
250.04 K, 19866 kPa | 302.682 | –
250.05 K, 1985.1 kPa | 29 | –
250.05 K, 3997.3 kPa | 59.733 | –
250.05 K, 5998.8 kPa | 91.41 | –
250.05 K, 8000 kPa | 123.81 | –
250.05 K, 10007 kPa | 156.529 | –
250.06 K, 1944.1 kPa | – | 29.337
250.06 K, 3982.7 kPa | – | 61.879
250.06 K, 5984.1 kPa | – | 95.441
250.06 K, 7996.2 kPa | – | 130.387
250.06 K, 16016 kPa | – | 267.875
250.06 K, 18019 kPa | – | 298.361
250.06 K, 19997 kPa | – | 326.225
250.07 K, 10003 kPa | – | 165.836
250.07 K, 12006 kPa | – | 201.013
250.07 K, 14014 kPa | – | 235.308
275.01 K, 6002 kPa | 80.825 | –
275.01 K, 7997.9 kPa | 108.505 | –
275.02 K, 1988.5 kPa | – | 26.992
275.02 K, 3997.1 kPa | 53.276 | –
275.02 K, 4000.6 kPa | – | 55.255
275.02 K, 5998 kPa | – | 84.088
275.02 K, 7994.3 kPa | – | 113.405
275.02 K, 10004 kPa | 136.29 | –
275.02 K, 12009 kPa | 163.678 | –
275.02 K, 14013 kPa | 190.433 | –
275.02 K, 16022 kPa | 216.33 | –
275.02 K, 18057 kPa | 241.448 | –
275.02 K, 19841 kPa | 262.442 | –
275.03 K, 9995.5 kPa | – | 142.952
275.03 K, 12000 kPa | – | 172.315
275.03 K, 14001 kPa | – | 201.02
275.03 K, 15981 kPa | – | 228.492
275.03 K, 17994 kPa | – | 255.193
275.03 K, 19983 kPa | – | 280.214
299.96 K, 17994 kPa | – | 224.784
299.96 K, 19165 kPa | 226.098 | –
299.96 K, 19977 kPa | – | 247.119
299.97 K, 1992.1 kPa | – | 24.615
299.97 K, 1997.9 kPa | 23.945 | –
299.97 K, 3982.3 kPa | – | 49.692
299.97 K, 3996.5 kPa | 48.22 | –
299.97 K, 5996.4 kPa | 72.692 | –
299.97 K, 5999.2 kPa | – | 75.467
299.97 K, 7999.7 kPa | 97.214 | –
299.97 K, 8007.8 kPa | – | 101.3
299.97 K, 10002 kPa | 121.553 | –
299.97 K, 10003 kPa | – | 126.921
299.97 K, 12006 kPa | 145.55 | –
299.97 K, 12008 kPa | – | 152.379
299.97 K, 13991 kPa | – | 177.09
299.97 K, 14010 kPa | 169.025 | –
299.97 K, 15969 kPa | – | 201.068
299.97 K, 16014 kPa | 191.829 | –
299.97 K, 17869 kPa | 212.244 | –
324.98 K, 1996 kPa | 21.979 | –
324.98 K, 1996.1 kPa | – | 22.645
324.98 K, 3995.9 kPa | – | 45.557
324.98 K, 3996.2 kPa | 44.111 | –
324.98 K, 5991.8 kPa | 66.201 | –
324.98 K, 5996.6 kPa | – | 68.599
324.98 K, 7997.6 kPa | – | 91.632
324.98 K, 8019.2 kPa | 88.521 | –
324.98 K, 9996.9 kPa | – | 114.495
324.98 K, 9998.9 kPa | 110.087 | –
324.98 K, 11991 kPa | – | 137.002
324.98 K, 11999 kPa | 131.525 | –
324.98 K, 13983 kPa | 152.335 | –
324.98 K, 14014 kPa | – | 159.405
324.98 K, 16001 kPa | 172.971 | –
324.98 K, 16006 kPa | – | 180.933
324.98 K, 18001 kPa | 192.79 | –
324.98 K, 18016 kPa | – | 202.007
324.98 K, 19621 kPa | 208.36 | –
324.98 K, 19978 kPa | – | 221.898
349.96 K, 1996.1 kPa | 20.34 | –
349.96 K, 3996.6 kPa | 40.709 | –
349.96 K, 5996.7 kPa | 60.978 | –
349.97 K, 1995.9 kPa | – | 20.947
349.97 K, 3995.3 kPa | – | 41.993
349.97 K, 5996.9 kPa | – | 63.049
349.97 K, 7995.4 kPa | – | 83.959
349.97 K, 7995.8 kPa | 81.051 | –
349.97 K, 9997.5 kPa | 100.892 | –
349.97 K, 9999.5 kPa | – | 104.724
349.97 K, 11998 kPa | 120.373 | 125.127
349.97 K, 13995 kPa | 139.425 | –
349.97 K, 14004 kPa | – | 145.221
349.97 K, 16000 kPa | 158.084 | –
349.97 K, 16008 kPa | – | 164.842
349.97 K, 17994 kPa | 176.127 | –
349.97 K, 18008 kPa | – | 183.902
349.97 K, 19378 kPa | 188.339 | –
349.97 K, 19983 kPa | – | 202.168
374.95 K, 1963.6 kPa | – | 19.172
374.95 K, 3953.7 kPa | – | 38.571
374.95 K, 5995.6 kPa | – | 58.378
374.95 K, 7997.3 kPa | – | 77.627
374.95 K, 9986.3 kPa | – | 96.527
374.95 K, 11945 kPa | – | 114.852
374.96 K, 13990 kPa | – | 133.615
374.96 K, 15999 kPa | – | 151.646
374.96 K, 17992 kPa | – | 169.101
374.96 K, 19972 kPa | – | 185.971
374.97 K, 1974.6 kPa | 18.733 | –
374.97 K, 3962.2 kPa | 37.494 | –
374.97 K, 5994.5 kPa | 56.518 | –
374.97 K, 7989.9 kPa | 74.983 | –
374.97 K, 9982.5 kPa | 93.148 | –
374.97 K, 11981 kPa | 111.044 | –
374.97 K, 13972 kPa | 128.504 | –
374.97 K, 15966 kPa | 145.587 | –
374.98 K, 17960 kPa | 162.237 | –
374.98 K, 18719 kPa | 168.45 | –
400.02 K, 1995.3 kPa | – | 18.223
400.02 K, 3995.7 kPa | – | 36.397
400.02 K, 5995.4 kPa | – | 54.424
400.02 K, 7991.2 kPa | – | 72.219
400.02 K, 9990.8 kPa | – | 89.804
400.02 K, 11986 kPa | – | 107.065
400.02 K, 13988 kPa | – | 124.054
400.02 K, 15977 kPa | – | 140.583
400.02 K, 17818 kPa | – | 155.538
400.03 K, 3994.9 kPa | 35.321 | –
400.03 K, 9992.9 kPa | 86.844 | –
400.04 K, 1995.9 kPa | 17.722 | –
400.04 K, 5992.1 kPa | 52.72 | –
400.04 K, 7980.9 kPa | 69.818 | –
400.04 K, 11987 kPa | 103.403 | –
400.04 K, 13992 kPa | 119.725 | –
400.04 K, 15984 kPa | 135.572 | –
400.04 K, 17815 kPa | 149.796 | –
400.04 K, 18908 kPa | 158.136 | –
